Assay results: patent publication US20220400669A1, “COMPOUNDS AND METHODS FOR PROMOTING PLANT GROWTH” (King Abdullah University of Science and Technology, priority 2019, published 2022)
“Also recorded” adds a separate entry of the source.

Assays:
[1] = tested on: SL biosynthesis genes D27, CCD7, CCD8, CO; assay: qRT-PCR transcript analysis of SL biosynthesis genes in rice roots; assay type: in vivo; details: 5 μM
Protocol: For transcript analysis, one-week-old seedlings were grown hydroponically in half-strength modified Hoagland nutrient solution with K2HPO4.2H2O (+Pi) and without K2HPO4.2H2O (+Pi) (−Pi) for 7 days. Seedlings were further treated with zaxinone or MZ compounds for 6 h, and tissues were collected.
Roots of rice seedling were ground and homogenized in liquid nitrogen, and total RNA was isolated using a Direct-zol RNA Miniprep Plus Kit following the manufacturer's instructions (ZYMO RESEARCH; USA). cDNA was synthesized from 1 μg of total RNA using iScript cDNA Synthesis Kit (BIO-RAD Laboratories, Inc, 2000 Alfred Nobel Drive, Hercules, Calif.; USA) according to the instructions in the user manual. The gene expression level was detected by real-time quantitative RT-PCR (qRT-PCR) which was performed using SYBR Green Master Mix (Applied Biosystems; www.lifetechnologies.com) in a CFX384 Touch™ Real-Time PCR Detection System (BIO-RAD Laboratories, Inc, 2000 Alfred Nobel Drive, Hercules, Calif.; USA). The gene expression level was calculated by normalization of a housekeeping gene in rice, Ubiquitin (OsUBQ) (Table 1). The relative gene expression level was calculated according to 2-^ΔΔCT method.

[2] = tested on: strigolactones (4-deoxyorobanchol, orobanchol) content; assay: LC-MS/MS quantification of SLs in rice root tissues; assay type: in vivo; details: Pi-starved WT rice, 5 μM, 6 hours
Protocol: For SL analysis, one-week-old seedlings were transferred into 50 ml falcon tubes (two seedlings per tube), containing half-strength Hoagland nutrient solution with K2HPO4.2H2O (+Pi), and grown in the biochamber for one week. Rice seedlings were then subjected to phosphate deficiency (−Pi) for another one week. On the day of root exudates collection, rice seedlings were first treated with 5 μM Zaxinone, or MZ compounds for 6 h, and then root exudates and root tissues were collected from each tube for LC-MS/MS analysis and Striga bioassays.
For the quantification of SLs in rice root, plant tissue material was lyophilized and grinded. Approximately 20 mg root tissue spiked with 0.672 ng of D6-5-deoxystrigol was extracted with 2 ml of ethyl acetate in an ultrasound bath (Branson 3510 ultrasonic bath) for 15 min, followed by centrifugation for 8 min at 3800 rpm at 4° C. The supernatant was collected and the pellet was re-extracted with 2 ml of ethyl acetate. Then the two supernatants were combined and dried under vacuum. The residue was dissolved in 100 μl of ethyl acetate and 2 ml of hexane. The resulting extract solution was loaded on a Silica gel SPE column (500 mg/3 ml) preconditioned with 3 ml of ethyl acetate and 3 ml of hexane. […] 4-deoxyorobanchol was analyzed by using HPLC-Q-Trap-MS/MS with MRM mode. […]

[3] = Chemical stability in aqueous solution by HPLC; assay type: physicochemical; details: 14-day HPLC analysis, room temperature (21±1° C.), pH 5.0-6.0 aqueous solution; compared with MZ5
Protocol: MZ3, and MZ5 were tested for their chemical stability at 21±1° C. with pH 5.0-6.0 aqueous solution following the protocol described recently. 50 μl of each compound solutions (1 mg ml-1) was prepared with 175 μl ethanol and 750 μl Mili-Q water. Thereafter, 25 μl Indanol (1 mg ml-1, internal standard) was spiked in 975 μl previous prepared solution. The degradation was monitored at a time course by UPLC analysis using an Agilent HPLC ZORBAX Eclipse XDB-C18 column (3.5 μm, 4.6×150 mm), eluted first by 5% acetonitrile in water for 0.5 min then by a gradient flow from 5% to 100% acetonitrile within 18 min, and by 100% acetonitrile for 5 min. The column was operated at 40° C. at 0.35 ml min^−1 flow rate. Compounds eluted from the column were detected with a photodiode array detector, and the relative quantity of non-degraded amount was calculated by integration comparison with Indanol.
Zaxinone was tested under the same conditions for comparison. Synthetic zaxinone was purchased (customized synthesis) from Buchem B.V. (Apeldoorn, The Netherlands).

Striga hermonthica = Striga hermonthica infection of rice in pots; assay type: in vivo; details: 5 μM, rice cv IAC-165 in pots with Striga infested soil (FIG. 13)
Protocol: Pots experiment was conducted and slightly adapted from the protocol as described previously About 20 mg (ca 8000) Striga seeds were thoroughly mixed in 1.5 L sand and soil mixture (1:1) and added in 3 L perforated plastic pot containing 0.5 L clean soil in the bottom. The pots were kept in greenhouse-controlled conditions at 35° C. under moisture to preconditioned Striga seeds for 10 days. On 11th day, one week old five rice seedlings (cv IAC165) were planted in each pot. After three days of rice planting, each pot was first irrigated with 250 ml phosphorus deficient Hoaglands nutrient solution and after four hours of irrigation 25 ml formulated MZ3, MZ5 and Zaxinone (100 μM) were sprayed. Next day, each pot was again supplied with 250 ml nutrient solution to make the final concentration of each compound to 5 μM and to move the compound to rice seedlings. Pots with and without Striga seeds were kept as the negative and positive control. Each compound was applied twice in a week up to four weeks. The rice plants were grown under normal growth condition (30° C., 70% RH) for eight weeks. The number of emerged Striga plants in each pot were counted.

COc1ccc(Oc2cccc(/C=C/C(C)=O)c2)cc1 [MZ3, (E)-4-(3-(4-methoxyphenoxy)phenyl)but-3-en-2-one]
CCD7 and CO transcript level compared with Zaxinone ([1]; wild-type rice roots, Pi starvation, 6 h (FIGS. 12A-12D)): significantly lower | transcript levels of SL biosynthesis enzymes D27, CCD7, CCD8 and CO ([1]; wild-type rice seedlings, Pi-starvation, 6 h): strongest inhibition; also recorded: pronounced decrease | Oro content in roots ([2]; control 0.6): 0.1 pgmg-1dry-root-weight | 4DO content in roots ([2]; control 2.5): 0.5 pgmg-1dry-root-weight | stability (relative amount of non-degraded compound) [3]: much more stable | reduction of the number of emerging Striga plants compared to the untreated control (Striga hermonthica): 71%
